Experimental findings from ChEMBL document CHEMBL5113532, “Design and Characterization of a Natural Arf-GEFs Inhibitor Prodrug CHNQD-01255 with Potent Anti-Hepatocellular Carcinoma Efficacy In Vivo” (J Med Chem, 2022) are described below.

Series [1] is described as follows: Solubility of the compound in saline/solutol HS-15 (90/10% V/V) at pH 7.4. The series is classed as physicochemical.
The test system of series [2] is Bel-7402. The series is described as follows: Antiproliferative activity against human Bel-7402 cells by MTT assay. The series is classed as functional, cell-based. (In general: Tetrazolium assays rely on reduction of a dye to a coloured formazan, in cell work by metabolically active cells.)
Series [3] in a line: Solubility of the compound in saline/PEG400 (95/5% V/V) at pH 7.4. The series is classed as physicochemical.
Series [4] is described as follows: Solubility of the compound in saline/DMSO/solutol HS-15 (85/5/10% V/V/V) at pH 7.4. It counts as physicochemical.
A short description of series [5]: Stability of the compound in absence of light of 100 lux measured of 3 days by HPLC analysis. The settings on record: 72 h; time 3 day. The series is classed as physicochemical.
Series [6] in a line: Toxicity in BALB/c mouse xenografted with human HepG2 cells assessed as adverse effect at 15 to 45 mg/kg, po qd at 45 mg/kg, po treated daily for 21 days measured every 3 days for 21 days. The series is classed as organism-based. The settings on record: in vivo, 504 h, dose 15-45 mg/kg, time 21 day.
The test system of series [7] is HepG2. Put plainly: Antitumor activity against human HepG2 cells xenografted in BALB/c nude mouse assessed as reduction in tumor weight at 45 mg/kg, po qd administered daily for 21 consecutive days and measured on day 21. The series is classed as functional, organism-based. The settings on record: time <= 21.0 day. On the technique in general: Xenograft models place foreign cells or tissue in a host animal.

Series [8] can be described thus: Cmax in ICR mouse at 45 mg/kg, po measured after 0.083 to 12 hrs by UPLC-MS/MS analysis. It counts as ADME, organism-based. The settings on record: in vivo. The arrangement: dose 45 mg/kg, time upper 12 hrs, time lower 0.083 hrs, route po.
Series [9] is described as follows: MRT (0 to t) in ICR mouse at 45 mg/kg, po measured after 0.083 to 12 hrs by UPLC-MS/MS analysis. The series is classed as ADME, organism-based. The settings on record: in vivo, time 0.083-12 hrs.
The nature of series [10]: Clearance in ICR mouse at 45 mg/kg, po measured after 0.083 to 12 hrs by UPLC-MS/MS analysis. It counts as ADME, organism-based. The settings on record: in vivo, time 0.083-12 hrs.
Series [11] is described as follows: Cmax in ICR mouse at 10 mg/kg, iv measured after 0.083 to 12 hrs by UPLC-MS/MS analysis. The series is classed as ADME, organism-based. The arrangement: time 0.083-12 hrs, dose 10 mg/kg, route iv. Particulars: in vivo.
A short description of series [12]: AUC(0 to t) in ICR mouse at 10 mg/kg, iv measured after 0.083 to 12 hrs by UPLC-MS/MS analysis. The series is classed as ADME, organism-based. The arrangement: time upper 12 hrs, dose 10 mg/kg, time lower 0.083 hrs, route iv. Particulars: in vivo.
Series [13] is described as follows: MRT (0 to t) in ICR mouse at 10 mg/kg, iv measured after 0.083 to 12 hrs by UPLC-MS/MS analysis. The series is classed as ADME, organism-based. Particulars: in vivo, time 0.083-12 hrs.
Series [14] can be described thus: Drug distribution in ICR mouse Spleen at 100 mg/kg, ip measured upto 0.5 hrs by UPLC-MS/MS analysis. It counts as ADME, organism-based. The settings on record: in vivo.
Series [15] is described as follows: Drug distribution in ICR mouse liver at 100 mg/kg, ip measured upto 0.5 hrs by UPLC-MS/MS analysis. It counts as ADME, organism-based. The settings on record: in vivo.
A short description of series [16]: Drug distribution in ICR mouse kidney at 100 mg/kg, ip measured upto 0.5 hrs by UPLC-MS/MS analysis. It counts as ADME, organism-based. Particulars: in vivo.
The nature of series [17]: Acute toxicity in po dosed ICR mouse assessed as maximum tolerated dose. The series is classed as organism-based. Particulars: in vivo.
Series [18] is described as follows: Acute toxicity in ip dosed ICR mouse assessed as maximum tolerated dose. The series is classed as organism-based. The settings on record: in vivo.
Series [19] is described as follows: Toxicity in ICR mouse assessed as change in body weight at 100 mg/kg, ip qd measured for 14 days. The series is classed as organism-based. The settings on record: in vivo, 336 h, time 14 day.
Series [20] is described as follows: Hepatotoxicity in ICR mouse assessed as change in blood ALP level at 45 mg/kg, po by biochemical assay. The series is classed as toxicity, organism-based. The settings on record: in vivo.
Series [21] has as its target Voltage-gated inwardly rectifying potassium channel KCNH2 (Homo sapiens, UniProt Q12809). Put plainly: Inhibtion of hERG transfected in HEK293 cells by whole cell patch clamp method. The series is classed as toxicity, cell-based. In general terms: Block of hERG is tested as a sign of cardiac risk.
In series [22] the test system is HepG2. Put plainly: Antitumor activity against human HepG2 cells xenografted in BALB/c nude mouse assessed as reduction in tumor weight at 1 to 9 mg/kg, iv qd administered daily for 21 consecutive days measured on day 21. It counts as functional, organism-based. The settings on record: dose 1-9 mg/kg, time 21.0 day.

Structures are written as SMILES. In brackets after ≈: the same amount, converted by molar mass. Activity calls are given as the source filed them. The rule behind the calls is not given here. A value given as a limit tells only on which side of the number the result lay.

Chain of Voltage-gated inwardly rectifying potassium channel KCNH2 (Q12809 whole entry): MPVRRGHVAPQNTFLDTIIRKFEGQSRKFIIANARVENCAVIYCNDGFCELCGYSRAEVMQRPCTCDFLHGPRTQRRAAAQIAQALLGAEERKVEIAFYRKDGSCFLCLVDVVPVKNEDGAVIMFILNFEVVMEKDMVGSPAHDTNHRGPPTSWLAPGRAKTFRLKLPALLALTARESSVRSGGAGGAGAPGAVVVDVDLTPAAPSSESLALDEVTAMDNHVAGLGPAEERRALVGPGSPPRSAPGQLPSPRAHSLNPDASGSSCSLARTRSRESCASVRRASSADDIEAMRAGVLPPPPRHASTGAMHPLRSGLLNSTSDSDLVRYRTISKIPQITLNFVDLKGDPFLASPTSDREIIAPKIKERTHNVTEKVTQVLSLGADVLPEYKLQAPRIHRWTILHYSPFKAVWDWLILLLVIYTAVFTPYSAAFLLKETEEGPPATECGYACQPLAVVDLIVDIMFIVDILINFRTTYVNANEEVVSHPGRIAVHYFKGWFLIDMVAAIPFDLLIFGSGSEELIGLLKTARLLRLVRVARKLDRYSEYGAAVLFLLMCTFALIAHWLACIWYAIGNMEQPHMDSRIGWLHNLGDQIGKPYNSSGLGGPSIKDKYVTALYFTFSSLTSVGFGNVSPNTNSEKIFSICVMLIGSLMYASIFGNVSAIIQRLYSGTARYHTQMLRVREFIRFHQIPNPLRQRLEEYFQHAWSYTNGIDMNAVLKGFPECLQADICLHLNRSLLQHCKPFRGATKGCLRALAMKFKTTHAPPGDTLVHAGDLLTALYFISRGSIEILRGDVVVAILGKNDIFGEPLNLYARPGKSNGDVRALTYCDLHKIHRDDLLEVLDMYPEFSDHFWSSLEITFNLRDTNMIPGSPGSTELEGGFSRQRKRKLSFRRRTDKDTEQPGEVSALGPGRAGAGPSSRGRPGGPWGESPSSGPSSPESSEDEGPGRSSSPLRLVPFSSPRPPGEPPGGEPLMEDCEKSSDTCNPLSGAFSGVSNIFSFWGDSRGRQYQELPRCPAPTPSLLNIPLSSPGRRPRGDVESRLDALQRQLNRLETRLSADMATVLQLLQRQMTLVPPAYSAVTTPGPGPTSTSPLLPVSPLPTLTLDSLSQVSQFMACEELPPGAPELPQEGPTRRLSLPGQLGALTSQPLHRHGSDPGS

Take `C[C@H]1CCC/C=C/[C@@H]2C[C@H](OC(=O)OCc3cccnc3)C[C@H]2[C@H](O)/C=C/C(=O)O1`: the solubility (as a rule, how much of the substance goes into solution per volume) is 5000 µg/mL (≈ 12 mM) in [1], under 1000 µg/mL in [3] and 15000 µg/mL (≈ 36.1 mM) in series [4]. The results for the half-inhibitory concentration (IC50) in series [2] and in series [21] were 70 nM and over 30000 nM, respectively. In addition, the Stability entry in series [5] is given as “Stable”. Moreover, the Activity entry in series [6], in series [19] and in series [20] was “Non-Toxic” throughout. Also, the outcome in [7] and in series [22] was Active. Moreover, the Cmax (usually the highest concentration seen after dosing) worked out at 20.3 ng/mL in [8] and 2060 ng/mL in [11]. Also, the mean residence time (MRT last) (in general, a mean duration of stay, worked out from the concentration-time curve) in series [9] stood at 2.92 h; in series [13], 0.84 h. Also, in series [10], the CL/F (commonly clearance divided by bioavailability, as obtained after extravascular dosing) was 598 L/h/kg. The AUC(0-t) (in general, the area under the concentration-time curve up to a stated or last time point) in [12] was found to be 519 ng·h/mL. Further, the Drug uptake entry in [14], in [15] and in series [16] was “Active” in each case. Further, the results for the MTD in series [17] and in [18] were over 750 mg/kg and over 100 mg/kg, respectively.
